{
  "source": "paper PMC4490784",
  "about": "“Compensatory induction of MYC expression by sustained CDK9 inhibition via a BRD4-dependent mechanism” (eLife, 2015)",
  "assay_in_all_cases": "biochemical binding or enzymatic assay",
  "key": {"[1]": {"target": "T1, PDGFRA (Homo sapiens, UniProt P16234)", "T1 construct": "purchased DiscoveRx KINOMEscan", "T1 sequence (P16234 24-1089)": "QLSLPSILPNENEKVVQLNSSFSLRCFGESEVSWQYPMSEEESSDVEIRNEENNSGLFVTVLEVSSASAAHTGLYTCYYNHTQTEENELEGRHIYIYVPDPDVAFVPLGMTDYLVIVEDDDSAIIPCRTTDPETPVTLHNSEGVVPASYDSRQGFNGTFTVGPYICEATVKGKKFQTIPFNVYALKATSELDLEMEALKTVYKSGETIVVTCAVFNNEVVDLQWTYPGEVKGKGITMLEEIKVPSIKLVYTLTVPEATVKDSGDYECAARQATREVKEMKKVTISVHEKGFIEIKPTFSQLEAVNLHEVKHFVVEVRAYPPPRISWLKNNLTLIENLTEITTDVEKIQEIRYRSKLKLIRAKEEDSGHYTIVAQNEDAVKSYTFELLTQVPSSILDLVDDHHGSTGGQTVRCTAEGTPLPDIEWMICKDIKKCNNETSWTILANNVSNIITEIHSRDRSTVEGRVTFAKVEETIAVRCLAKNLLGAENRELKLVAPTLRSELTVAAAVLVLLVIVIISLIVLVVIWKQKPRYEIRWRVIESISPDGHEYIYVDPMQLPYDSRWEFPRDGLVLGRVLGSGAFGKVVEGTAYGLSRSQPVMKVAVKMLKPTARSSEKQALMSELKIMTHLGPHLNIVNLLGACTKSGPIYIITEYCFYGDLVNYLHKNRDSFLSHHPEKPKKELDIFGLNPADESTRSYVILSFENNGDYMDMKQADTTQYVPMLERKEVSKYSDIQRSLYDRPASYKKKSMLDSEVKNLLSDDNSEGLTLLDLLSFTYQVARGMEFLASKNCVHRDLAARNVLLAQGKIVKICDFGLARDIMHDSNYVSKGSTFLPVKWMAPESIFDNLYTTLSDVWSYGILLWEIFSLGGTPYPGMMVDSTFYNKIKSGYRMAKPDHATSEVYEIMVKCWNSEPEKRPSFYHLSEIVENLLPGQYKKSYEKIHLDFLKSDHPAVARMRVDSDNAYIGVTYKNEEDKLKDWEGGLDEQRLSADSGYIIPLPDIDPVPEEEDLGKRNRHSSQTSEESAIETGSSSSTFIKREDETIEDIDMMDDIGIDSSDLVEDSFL", "details": "Novartis", "protocol": "(§1) Finally, the selectivity profile of i-CDK9 toward other non-CDK kinases was also assessed using the KINOMEscan platform. […] Except for CLK4, for which no suitable assay was available, the rest of the kinases plus a selected group of others were re-examined for the concentration-dependent effect of i-CDK9 in either functional kinase assays or binding assays. […] Indeed, it has recently been reported that DYRK1A acts as a Pol II CTD Kinase at its target gene promoters ([Di Vona et al., 2015])."}, "[2]": {"target": "T2, LYN (Homo sapiens, UniProt P07948)", "T2 construct": "purchased DiscoveRx KINOMEscan", "details": "Novartis", "protocol": "as §1"}, "[3]": {"target": "T3, TAOK3 (Homo sapiens, UniProt Q9H2K8)", "T3 construct": "purchased DiscoveRx KINOMEscan", "T3 sequence (Q9H2K8 1-898)": "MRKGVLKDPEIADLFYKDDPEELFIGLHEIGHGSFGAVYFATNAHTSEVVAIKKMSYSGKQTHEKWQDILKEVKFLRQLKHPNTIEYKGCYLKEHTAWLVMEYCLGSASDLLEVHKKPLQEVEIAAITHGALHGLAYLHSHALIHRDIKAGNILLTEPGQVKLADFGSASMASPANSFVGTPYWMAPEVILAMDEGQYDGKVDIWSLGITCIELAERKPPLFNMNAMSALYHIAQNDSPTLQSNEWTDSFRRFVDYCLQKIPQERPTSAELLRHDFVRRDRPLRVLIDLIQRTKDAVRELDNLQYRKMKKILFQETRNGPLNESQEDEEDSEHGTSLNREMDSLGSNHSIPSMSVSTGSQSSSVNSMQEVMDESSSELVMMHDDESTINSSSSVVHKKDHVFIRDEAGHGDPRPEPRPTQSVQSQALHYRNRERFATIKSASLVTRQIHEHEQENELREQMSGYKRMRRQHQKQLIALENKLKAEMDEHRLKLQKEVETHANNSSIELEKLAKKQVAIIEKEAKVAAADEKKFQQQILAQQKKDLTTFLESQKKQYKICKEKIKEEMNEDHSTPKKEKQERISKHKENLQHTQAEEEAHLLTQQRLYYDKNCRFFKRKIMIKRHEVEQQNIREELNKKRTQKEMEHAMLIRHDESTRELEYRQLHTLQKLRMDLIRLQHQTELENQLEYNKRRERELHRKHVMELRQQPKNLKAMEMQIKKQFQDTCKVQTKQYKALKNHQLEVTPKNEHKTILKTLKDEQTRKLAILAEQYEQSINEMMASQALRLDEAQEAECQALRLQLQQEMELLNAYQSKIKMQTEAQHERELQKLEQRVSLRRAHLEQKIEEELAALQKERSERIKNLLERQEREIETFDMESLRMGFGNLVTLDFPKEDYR", "details": "Millipore", "protocol": "as §1"}, "[4]": {"target": "T4, PCTK1 (Homo sapiens, UniProt Q00536)", "T4 construct": "purchased DiscoveRx KINOMEscan", "T4 sequence (Q00536 whole entry)": "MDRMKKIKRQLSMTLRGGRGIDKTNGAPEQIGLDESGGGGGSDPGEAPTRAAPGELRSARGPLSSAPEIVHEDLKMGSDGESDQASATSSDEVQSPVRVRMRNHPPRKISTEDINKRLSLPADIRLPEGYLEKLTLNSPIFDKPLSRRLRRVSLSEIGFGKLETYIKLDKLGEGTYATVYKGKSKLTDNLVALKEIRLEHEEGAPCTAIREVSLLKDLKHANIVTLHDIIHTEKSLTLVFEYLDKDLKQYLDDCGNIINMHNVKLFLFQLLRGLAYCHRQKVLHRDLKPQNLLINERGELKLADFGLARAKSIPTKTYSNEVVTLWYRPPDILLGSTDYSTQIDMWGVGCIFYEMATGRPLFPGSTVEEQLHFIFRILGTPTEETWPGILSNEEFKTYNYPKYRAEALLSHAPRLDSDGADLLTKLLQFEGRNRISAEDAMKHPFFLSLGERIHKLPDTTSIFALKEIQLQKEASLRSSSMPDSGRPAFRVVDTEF", "details": "Ambit", "protocol": "as §1"}, "[5]": {"target": "T5, LCK (Homo sapiens, UniProt P06239)", "T5 construct": "purchased DiscoveRx KINOMEscan", "details": "Novartis", "protocol": "as §1"}, "[6]": {"target": "T6, AKT1 (Homo sapiens, UniProt P31749)", "T6 construct": "purchased DiscoveRx KINOMEscan", "T6 sequence (P31749 whole entry)": "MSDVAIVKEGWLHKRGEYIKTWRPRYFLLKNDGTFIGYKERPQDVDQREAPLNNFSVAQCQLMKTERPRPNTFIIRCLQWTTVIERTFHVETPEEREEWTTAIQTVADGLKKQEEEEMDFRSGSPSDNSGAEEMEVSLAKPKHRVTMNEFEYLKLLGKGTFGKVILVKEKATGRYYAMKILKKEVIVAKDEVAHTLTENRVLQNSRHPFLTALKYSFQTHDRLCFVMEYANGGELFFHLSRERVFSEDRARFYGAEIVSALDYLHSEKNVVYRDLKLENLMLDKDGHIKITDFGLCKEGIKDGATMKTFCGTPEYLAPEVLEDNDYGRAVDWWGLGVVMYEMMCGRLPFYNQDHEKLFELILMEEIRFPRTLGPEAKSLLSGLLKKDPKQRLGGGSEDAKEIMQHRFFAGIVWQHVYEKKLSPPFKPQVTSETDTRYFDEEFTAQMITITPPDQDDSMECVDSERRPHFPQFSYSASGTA", "details": "Novartis", "protocol": "as §1"}, "[7]": {"target": "T7, MKNK1 (Homo sapiens, UniProt Q9BUB5)", "T7 construct": "purchased DiscoveRx KINOMEscan", "details": "Novartis", "protocol": "as §1"}, "[8]": {"target": "T8, FLT3 (Homo sapiens, UniProt P36888)", "T8 construct": "purchased DiscoveRx KINOMEscan", "T8 sequence (P36888 27-993)": "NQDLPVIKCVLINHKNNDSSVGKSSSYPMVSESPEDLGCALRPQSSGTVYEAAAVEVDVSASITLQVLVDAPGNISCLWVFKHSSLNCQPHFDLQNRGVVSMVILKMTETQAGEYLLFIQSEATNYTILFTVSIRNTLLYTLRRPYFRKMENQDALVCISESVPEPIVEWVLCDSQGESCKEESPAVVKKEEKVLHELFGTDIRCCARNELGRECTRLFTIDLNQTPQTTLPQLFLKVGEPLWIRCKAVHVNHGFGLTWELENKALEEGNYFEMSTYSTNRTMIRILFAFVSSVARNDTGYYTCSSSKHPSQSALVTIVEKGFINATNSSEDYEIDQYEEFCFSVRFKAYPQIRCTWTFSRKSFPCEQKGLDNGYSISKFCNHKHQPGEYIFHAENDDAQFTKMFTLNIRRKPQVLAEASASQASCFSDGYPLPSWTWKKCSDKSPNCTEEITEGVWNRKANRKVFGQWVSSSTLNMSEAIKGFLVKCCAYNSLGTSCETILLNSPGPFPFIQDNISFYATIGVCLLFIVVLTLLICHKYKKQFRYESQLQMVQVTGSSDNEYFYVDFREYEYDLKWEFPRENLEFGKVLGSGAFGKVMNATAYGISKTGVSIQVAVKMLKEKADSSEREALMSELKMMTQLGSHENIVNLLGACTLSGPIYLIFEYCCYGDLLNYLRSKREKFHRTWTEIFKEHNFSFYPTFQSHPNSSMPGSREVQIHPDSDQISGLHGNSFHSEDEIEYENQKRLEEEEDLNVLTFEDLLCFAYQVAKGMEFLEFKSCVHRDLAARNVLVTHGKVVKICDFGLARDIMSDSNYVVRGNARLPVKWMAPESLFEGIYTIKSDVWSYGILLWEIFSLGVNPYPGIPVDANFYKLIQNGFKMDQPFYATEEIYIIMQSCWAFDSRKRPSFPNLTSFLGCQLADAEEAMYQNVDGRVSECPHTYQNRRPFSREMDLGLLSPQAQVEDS", "details": "Novartis", "protocol": "as §1"}, "[9]": {"target": "T9, PCTK3 (Homo sapiens, UniProt Q07002)", "T9 construct": "purchased DiscoveRx KINOMEscan", "details": "Ambit", "protocol": "as §1"}, "[10]": {"target": "T10, PDPK1 (Homo sapiens, UniProt O15530)", "T10 construct": "purchased DiscoveRx KINOMEscan", "T10 sequence (O15530 1-556)": "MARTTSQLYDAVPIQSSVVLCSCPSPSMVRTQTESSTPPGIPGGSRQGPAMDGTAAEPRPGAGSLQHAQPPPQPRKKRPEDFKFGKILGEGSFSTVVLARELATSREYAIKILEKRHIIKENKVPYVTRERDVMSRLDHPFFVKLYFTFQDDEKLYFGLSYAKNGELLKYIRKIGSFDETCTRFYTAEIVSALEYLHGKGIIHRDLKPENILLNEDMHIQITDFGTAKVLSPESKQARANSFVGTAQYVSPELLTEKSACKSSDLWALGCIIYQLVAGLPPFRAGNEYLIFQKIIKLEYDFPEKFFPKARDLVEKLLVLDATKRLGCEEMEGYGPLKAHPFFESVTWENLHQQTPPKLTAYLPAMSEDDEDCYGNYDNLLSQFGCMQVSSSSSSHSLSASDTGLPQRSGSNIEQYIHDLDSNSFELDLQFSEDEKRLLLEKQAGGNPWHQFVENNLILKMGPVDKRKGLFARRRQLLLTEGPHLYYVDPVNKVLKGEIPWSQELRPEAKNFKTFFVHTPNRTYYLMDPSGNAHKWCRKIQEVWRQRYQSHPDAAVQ", "details": "Novartis", "protocol": "as §1"}, "[11]": {"target": "T11, ERK1 (Homo sapiens, UniProt P27361)", "T11 construct": "purchased DiscoveRx KINOMEscan", "T11 sequence (P27361 whole entry)": "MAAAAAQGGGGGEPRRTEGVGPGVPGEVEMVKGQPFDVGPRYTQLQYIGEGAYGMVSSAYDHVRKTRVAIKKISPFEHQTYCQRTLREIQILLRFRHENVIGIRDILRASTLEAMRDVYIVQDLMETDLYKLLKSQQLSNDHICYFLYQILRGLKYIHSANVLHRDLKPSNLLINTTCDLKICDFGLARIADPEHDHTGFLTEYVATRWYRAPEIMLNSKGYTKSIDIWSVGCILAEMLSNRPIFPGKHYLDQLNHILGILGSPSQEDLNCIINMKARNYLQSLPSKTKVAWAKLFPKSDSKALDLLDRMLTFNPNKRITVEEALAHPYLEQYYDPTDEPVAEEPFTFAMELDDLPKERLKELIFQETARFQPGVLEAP", "details": "Novartis", "protocol": "as §1"}, "[12]": {"target": "T12, AURKA (Homo sapiens, UniProt O14965)", "T12 construct": "purchased DiscoveRx KINOMEscan", "T12 sequence (O14965 1-403)": "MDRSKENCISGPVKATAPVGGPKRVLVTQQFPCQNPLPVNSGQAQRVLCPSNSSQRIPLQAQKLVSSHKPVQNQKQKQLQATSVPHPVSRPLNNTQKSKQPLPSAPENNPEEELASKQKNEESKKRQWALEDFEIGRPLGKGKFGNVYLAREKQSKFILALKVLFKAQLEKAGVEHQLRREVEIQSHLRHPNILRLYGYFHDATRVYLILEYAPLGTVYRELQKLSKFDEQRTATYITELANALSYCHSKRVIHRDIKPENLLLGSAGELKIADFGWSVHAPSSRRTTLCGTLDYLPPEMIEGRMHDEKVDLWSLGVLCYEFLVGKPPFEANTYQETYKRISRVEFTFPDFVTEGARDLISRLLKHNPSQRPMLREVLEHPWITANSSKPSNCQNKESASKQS", "details": "Novartis", "protocol": "as §1"}, "[13]": {"target": "T13, BTK (Homo sapiens, UniProt Q06187)", "T13 construct": "purchased DiscoveRx KINOMEscan", "T13 sequence (Q06187 whole entry)": "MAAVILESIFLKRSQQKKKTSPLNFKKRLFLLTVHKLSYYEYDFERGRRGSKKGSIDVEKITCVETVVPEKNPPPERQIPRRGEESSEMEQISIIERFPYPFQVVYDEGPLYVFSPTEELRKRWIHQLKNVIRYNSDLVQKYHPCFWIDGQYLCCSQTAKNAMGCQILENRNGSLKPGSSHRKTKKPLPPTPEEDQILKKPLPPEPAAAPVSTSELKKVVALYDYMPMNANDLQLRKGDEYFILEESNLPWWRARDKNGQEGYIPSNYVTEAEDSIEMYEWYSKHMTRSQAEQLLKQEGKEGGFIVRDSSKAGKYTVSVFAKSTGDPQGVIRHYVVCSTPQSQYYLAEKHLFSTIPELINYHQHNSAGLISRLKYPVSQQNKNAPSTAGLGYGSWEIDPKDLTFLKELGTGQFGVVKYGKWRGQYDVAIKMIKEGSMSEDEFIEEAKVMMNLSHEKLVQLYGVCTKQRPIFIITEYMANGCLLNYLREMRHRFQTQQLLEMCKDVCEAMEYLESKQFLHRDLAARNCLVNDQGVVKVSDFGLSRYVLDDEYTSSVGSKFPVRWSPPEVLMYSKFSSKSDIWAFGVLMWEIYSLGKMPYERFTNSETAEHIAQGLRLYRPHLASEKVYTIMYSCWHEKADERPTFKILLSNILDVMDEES", "details": "Novartis", "protocol": "as §1"}, "[14]": {"target": "T14, EPHA4 (Homo sapiens, UniProt P54764)", "T14 construct": "purchased DiscoveRx KINOMEscan", "details": "Novartis", "protocol": "as §1"}, "[15]": {"target": "T15, SYK (Homo sapiens, UniProt P43405)", "T15 construct": "purchased DiscoveRx KINOMEscan", "details": "Novartis", "protocol": "as §1"}, "[16]": {"target": "T16, FGFR3 (Homo sapiens, UniProt P22607)", "T16 construct": "purchased DiscoveRx KINOMEscan", "T16 sequence (P22607 23-806)": "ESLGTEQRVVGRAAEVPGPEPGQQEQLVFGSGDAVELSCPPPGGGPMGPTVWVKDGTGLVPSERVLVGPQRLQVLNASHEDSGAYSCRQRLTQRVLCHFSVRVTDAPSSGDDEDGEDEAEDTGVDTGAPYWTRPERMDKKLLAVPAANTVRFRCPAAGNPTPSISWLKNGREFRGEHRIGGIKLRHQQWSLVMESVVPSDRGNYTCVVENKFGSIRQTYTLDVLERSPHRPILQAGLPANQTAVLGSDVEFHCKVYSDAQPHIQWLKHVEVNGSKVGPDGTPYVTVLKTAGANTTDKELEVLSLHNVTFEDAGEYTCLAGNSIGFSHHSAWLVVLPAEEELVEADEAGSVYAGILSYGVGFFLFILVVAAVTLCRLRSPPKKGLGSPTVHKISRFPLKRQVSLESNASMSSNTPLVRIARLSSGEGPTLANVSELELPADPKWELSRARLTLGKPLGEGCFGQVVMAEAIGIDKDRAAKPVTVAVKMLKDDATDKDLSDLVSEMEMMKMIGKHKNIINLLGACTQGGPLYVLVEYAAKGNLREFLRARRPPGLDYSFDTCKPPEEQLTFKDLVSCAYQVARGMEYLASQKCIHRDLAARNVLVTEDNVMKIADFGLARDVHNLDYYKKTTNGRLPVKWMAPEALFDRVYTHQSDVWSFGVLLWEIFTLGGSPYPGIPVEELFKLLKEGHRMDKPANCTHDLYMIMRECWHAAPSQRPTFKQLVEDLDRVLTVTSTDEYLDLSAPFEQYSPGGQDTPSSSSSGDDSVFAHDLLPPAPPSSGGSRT", "details": "Novartis", "protocol": "as §1"}, "[17]": {"target": "T17, FYN (Homo sapiens, UniProt P06241)", "T17 construct": "purchased DiscoveRx KINOMEscan", "details": "Novartis", "protocol": "as §1"}},
  "data": [
    {"compound": "N[C@H]1CC[C@H](Nc2cc(-c3cccc(NCc4cccc(F)c4)n3)c(Cl)cn2)CC1", "note": "[i-CDK9, N2′-(trans-4-aminocyclohexyl)-5′-chloro-N6-(3-fluorobenzyl)-2,4′-bipyridine-2′,6-diamine]", "values": [
      {"measurement": "IC50", "setting": "[1]", "value": "> 10", "unit": "µM"},
      {"measurement": "IC50", "setting": "[2]", "value": "> 10", "unit": "µM"},
      {"measurement": "IC50", "setting": "[3]", "value": 1.08, "unit": "µM"},
      {"measurement": "IC50", "setting": "[4]", "value": "> 0.14", "unit": "µM"},
      {"measurement": "IC50", "setting": "[5]", "value": "> 10", "unit": "µM"},
      {"measurement": "IC50", "setting": "[6]", "value": "> 10", "unit": "µM"},
      {"measurement": "IC50", "setting": "[7]", "value": "> 10", "unit": "µM"},
      {"measurement": "IC50", "setting": "[8]", "value": "> 10", "unit": "µM"},
      {"measurement": "IC50", "setting": "[9]", "value": "> 0.45", "unit": "µM"},
      {"measurement": "IC50", "setting": "[10]", "value": "> 10", "unit": "µM"},
      {"measurement": "IC50", "setting": "[11]", "value": "> 10", "unit": "µM"},
      {"measurement": "IC50", "setting": "[12]", "value": "> 10", "unit": "µM"},
      {"measurement": "IC50", "setting": "[13]", "value": "> 10", "unit": "µM"},
      {"measurement": "IC50", "setting": "[14]", "value": "> 10", "unit": "µM"},
      {"measurement": "IC50", "setting": "[15]", "value": "> 10", "unit": "µM"},
      {"measurement": "IC50", "setting": "[16]", "value": "> 10", "unit": "µM"},
      {"measurement": "IC50", "setting": "[17]", "value": "> 10", "unit": "µM"}
    ]}
  ]
}
